Here are results for 7 compounds from ChEMBL document CHEMBL1201862, “PubChem BioAssay data set” (2004).

The target of experiment [1] is Disintegrin and metalloproteinase domain-containing protein 17 (Homo sapiens, UniProt P78536). As to the kind of experiment: exosite inhibitors of ADAM17, dose response, biochemical (AID 743260).
Experiment [2] can be described thus: ADAM10 protease inhibitors, dose response, selectivity assay for ADAM17 exosite inhibitor project, biochemical, FRET peptide substrate, recombinant human ADAM10 (AID 743259).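 Also: ADAM10 enzyme cleaving a FRET peptide substrate.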
For a further experiment, the target named is Beta-galactosidase (Escherichia coli, UniProt Q8VNN2). As to the kind of experiment: Dose response counterscreen for EBI2 assay utilizing the enzyme, b-galactosidase. Format: functional.
Experiment [3] can be described thus: A Cell Based Secondary Assay to Explore Cytotoxicity in THP-1 Cells of Compounds that Modulate Mycobacterium tuberculosis in Media Containing Glycerol versus Media without Glycerol (2). The format is functional.
A short description of experiment [4]: Vero cell cytotoxicity, cytotoxicity control for M. tuberculosis inhibitor project, purified and synthesized samples, set 3 (AID 504684). To be noted: […]. Format: functional.
Experiment [5] in a line: Counterscreen for […] of the human trace amine associated receptor 1 (TAAR1): Fluorescence-based cell-based high throughput dose response assay to identify nonselective Ga16 agonists. Format: functional. In general terms: A counterscreen serves to expose hits that act by an unwanted route or on another target.
Experiment [6] in a line: Counterscreen for antagonists of the human trace amine associated receptor 1 (hTAAR1): Fluorescence-based cell-based high throughput dose response assay to identify nonselective Ga16 antagonists. The format is functional.
Experiment [7] has as its target T1, Trace amine-associated receptor 1 (Homo sapiens, UniProt Q96RJ0).
T1 sequence (Q96RJ0 whole entry): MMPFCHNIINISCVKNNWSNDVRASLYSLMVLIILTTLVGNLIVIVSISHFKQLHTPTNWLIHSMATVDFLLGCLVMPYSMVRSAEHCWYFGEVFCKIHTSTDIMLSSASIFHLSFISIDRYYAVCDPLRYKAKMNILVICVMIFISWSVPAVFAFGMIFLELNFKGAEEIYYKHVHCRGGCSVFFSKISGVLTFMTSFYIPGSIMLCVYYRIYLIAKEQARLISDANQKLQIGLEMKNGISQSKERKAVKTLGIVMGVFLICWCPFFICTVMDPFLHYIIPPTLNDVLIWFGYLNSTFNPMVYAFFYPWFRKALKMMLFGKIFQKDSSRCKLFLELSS
As to the kind of experiment: Fluorescence-based cell-based high throughput dose response assay to identify antagonists of the human trace amine associated receptor 1 (TAAR1). The format is functional.

In experiment [8] the target is T1, Trace amine-associated receptor 1. The experiment in a line: Counterscreen for antagonists of the human trace amine associated receptor 1 (hTAAR1): Fluorescence-based cell-based high throughput dose response assay to identify TAAR1 Agonists. The format is functional.
The target in a further experiment is Albumin (Bos taurus, UniProt P02769). As to the kind of experiment: Counterscreen for inhibitors of T-cell receptor (TCR)-CD3 interaction: Fluorescence-based biochemical high throughput dose response assay to identify inhibitors of T-cell receptor (TCR)-CD3 interaction using a TAMRA-labeled BSA probe. Format: functional.
A short description of experiment [9]: human group III sPLA2 inhibitors, dose response, biochemical, QFRET, IC50 (AID 743457).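 Also: green fluorescence rise as the enzyme cleaves BODIPY PC-A2 in liposomes; potency for inhibition of the enzyme.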

As usually defined, the IC50 is the concentration at which inhibition is half-maximal. As a reminder, the CC50 is the concentration giving 50% cytotoxicity. As usually defined, the EC50 is the concentration that produces a half-maximal response.

Activity calls are given as the source filed them.

Chain of Beta-galactosidase (Q8VNN2 whole entry): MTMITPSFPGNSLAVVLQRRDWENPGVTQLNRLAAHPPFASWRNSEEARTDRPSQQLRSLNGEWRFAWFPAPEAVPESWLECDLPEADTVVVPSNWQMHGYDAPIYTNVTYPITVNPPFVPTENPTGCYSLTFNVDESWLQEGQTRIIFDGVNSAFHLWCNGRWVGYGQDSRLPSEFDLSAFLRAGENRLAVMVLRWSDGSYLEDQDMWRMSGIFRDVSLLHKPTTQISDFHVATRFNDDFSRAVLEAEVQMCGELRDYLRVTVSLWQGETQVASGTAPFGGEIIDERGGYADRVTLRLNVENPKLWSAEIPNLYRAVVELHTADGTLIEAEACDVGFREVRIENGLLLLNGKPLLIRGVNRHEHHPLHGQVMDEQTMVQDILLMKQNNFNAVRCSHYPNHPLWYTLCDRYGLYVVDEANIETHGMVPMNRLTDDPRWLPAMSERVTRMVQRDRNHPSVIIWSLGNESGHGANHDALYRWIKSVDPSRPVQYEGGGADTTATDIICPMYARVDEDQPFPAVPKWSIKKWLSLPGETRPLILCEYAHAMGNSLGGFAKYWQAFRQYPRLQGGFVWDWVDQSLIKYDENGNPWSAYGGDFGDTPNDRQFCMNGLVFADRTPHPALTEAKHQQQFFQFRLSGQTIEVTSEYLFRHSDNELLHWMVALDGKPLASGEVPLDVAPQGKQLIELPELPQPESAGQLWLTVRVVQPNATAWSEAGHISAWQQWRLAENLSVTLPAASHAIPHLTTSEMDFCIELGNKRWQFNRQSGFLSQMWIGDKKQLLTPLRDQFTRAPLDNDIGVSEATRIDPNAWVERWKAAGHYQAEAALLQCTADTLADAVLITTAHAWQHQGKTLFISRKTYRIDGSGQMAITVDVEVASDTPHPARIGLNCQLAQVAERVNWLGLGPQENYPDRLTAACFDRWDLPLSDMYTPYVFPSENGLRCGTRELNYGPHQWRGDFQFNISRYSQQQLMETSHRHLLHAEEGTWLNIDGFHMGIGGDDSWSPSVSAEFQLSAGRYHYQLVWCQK
Chain of Albumin (P02769 whole entry): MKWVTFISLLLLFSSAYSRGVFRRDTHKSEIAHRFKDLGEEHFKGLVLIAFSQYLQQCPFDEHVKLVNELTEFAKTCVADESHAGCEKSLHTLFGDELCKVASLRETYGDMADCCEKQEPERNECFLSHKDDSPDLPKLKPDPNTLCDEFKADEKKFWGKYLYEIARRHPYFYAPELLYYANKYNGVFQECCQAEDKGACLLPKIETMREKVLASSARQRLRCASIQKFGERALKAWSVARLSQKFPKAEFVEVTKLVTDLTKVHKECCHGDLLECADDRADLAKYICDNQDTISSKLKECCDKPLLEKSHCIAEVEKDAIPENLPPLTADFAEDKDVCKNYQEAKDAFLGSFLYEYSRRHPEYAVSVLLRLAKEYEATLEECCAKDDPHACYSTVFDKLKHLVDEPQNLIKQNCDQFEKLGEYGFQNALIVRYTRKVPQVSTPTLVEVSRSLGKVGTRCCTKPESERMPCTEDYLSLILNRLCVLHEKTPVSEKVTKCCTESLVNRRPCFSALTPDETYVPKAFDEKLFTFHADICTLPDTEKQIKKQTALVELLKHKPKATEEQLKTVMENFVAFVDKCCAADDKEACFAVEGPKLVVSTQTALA
Chain of Disintegrin and metalloproteinase domain-containing protein 17 (P78536 whole entry, the tested form may be a part): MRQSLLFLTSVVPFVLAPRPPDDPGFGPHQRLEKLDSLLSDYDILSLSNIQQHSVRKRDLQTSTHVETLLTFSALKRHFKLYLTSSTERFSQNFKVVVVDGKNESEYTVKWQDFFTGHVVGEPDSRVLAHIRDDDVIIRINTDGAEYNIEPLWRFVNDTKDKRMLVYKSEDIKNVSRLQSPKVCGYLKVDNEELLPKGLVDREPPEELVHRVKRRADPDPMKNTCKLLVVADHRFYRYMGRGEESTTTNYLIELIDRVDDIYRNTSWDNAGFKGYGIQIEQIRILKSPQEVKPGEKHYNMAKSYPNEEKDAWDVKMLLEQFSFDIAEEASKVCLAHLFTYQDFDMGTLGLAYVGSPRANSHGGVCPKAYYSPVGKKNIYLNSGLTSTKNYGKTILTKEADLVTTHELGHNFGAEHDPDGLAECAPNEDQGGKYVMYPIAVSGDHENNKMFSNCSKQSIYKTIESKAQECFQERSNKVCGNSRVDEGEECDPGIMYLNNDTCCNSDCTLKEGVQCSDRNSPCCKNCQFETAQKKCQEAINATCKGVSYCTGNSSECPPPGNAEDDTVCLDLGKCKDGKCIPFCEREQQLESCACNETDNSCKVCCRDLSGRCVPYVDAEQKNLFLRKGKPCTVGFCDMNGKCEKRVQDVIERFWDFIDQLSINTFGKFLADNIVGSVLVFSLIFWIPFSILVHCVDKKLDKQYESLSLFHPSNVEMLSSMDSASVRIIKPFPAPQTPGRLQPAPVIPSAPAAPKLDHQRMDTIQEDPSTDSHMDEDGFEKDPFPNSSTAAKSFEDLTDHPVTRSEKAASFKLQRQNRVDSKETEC

As to `COc1ccc(OC)c(-c2csc(NC(=O)COC(=O)C3(C)CC3(Cl)Cl)n2)c1` (stereo not drawn), the results for the IC50 in experiment [1] and in [2] were > 69.5 µM (inactive) and 13.1 µM (inactive), respectively.

For the compound `CCOC(=O)C1=C(Nc2ccc(Cl)cc2)S/C(=C\c2ccccn2)C1=O`, the IC50 on Beta-galactosidase is > 80 µM (inactive).

Regarding `O=C(/C=C/c1ccccc1)N1CCN(CCN2C(=O)c3cccc4cccc(c34)C2=O)CC1`, the figures for the 50% cytotoxic concentration (CC50) in experiment [3] and in experiment [4] were 60.2 µM (active) and > 100 µM (active), respectively. In addition, the IC50 on Beta-galactosidase is > 80 µM (inactive).

`COc1ccc2oc(C(=O)OCC(=O)NCc3ccccc3OC)c(C)c2c1`: the values for the EC50 in experiment [5] and in experiment [8] were > 29.9 µM (inactive) and 7.16 µM (active), respectively. Also, the IC50 in experiment [6] is > 29.9 µM (inactive); in experiment [7] it was 6.65 µM (active).

In the case of `O=C(NN=Cc1sc(=O)[nH]c1-[n+]1ccc2ccccc2c1)c1ccccc1[O-]`, on Albumin, the IC50 was > 94.1 µM (inactive).

For the compound `NC(=O)CCC1NC(=S)N(Cc2ccccc2)C1=O` (stereo not drawn), the IC50 at Albumin was > 94.1 µM (inactive).

With `O=C(NNC(=S)Nc1ccccc1Cl)c1ccccc1Cl`, the IC50 in experiment [9] was > 122 µM (inactive).
